According to ChEMBL document CHEMBL3132819, “2-Hydroxy-substituted cinnamic acids and acetanilides are selective growth inhibitors of Mycobacterium tuberculosis” (Medchemcomm, 2014):
Values after ≈ are worked out from the molar mass of the structure shown.

What was measured:
[1] = system: Mycobacterium tuberculosis; experiment: Antibacterial activity against Mycobacterium tuberculosis H37Rv ATCC 27294 after 2 weeks by spot culture growth inhibition assay; format: functional; conditions: H37Rv ATCC 27294, 336 h
[2] = system: Mycolicibacterium smegmatis; experiment: Antibacterial activity against Mycobacterium smegmatis MC2 155 assessed as growth inhibition; format: functional; conditions: str. MC2 155
[3] = Selectivity index, ratio of GI50 for mouse RAW264.7 cells to MIC for Mycobacterium tuberculosis H37Rv ATCC 27294; format: toxicity; conditions: read-out: Selectivity Index
[4] = Cytotoxicity against mouse RAW264.7 cells assessed as growth inhibition after 48 hrs by trypan blue assay; format: cell-based

| SMILES | MIC [1] | MIC [2] | selectivity ratio [3] | GI50 at 48 h [4] |
| --- | --- | --- | --- | --- |
| O=C(O)/C=C/c1ccc2c(c1)OCO2 | 312 µM (≈ 60 µg/mL) | > 600 µM | 8.8 |  |
| CC(=O)Nc1ccccc1O | 132 µM (≈ 20 µg/mL) | > 600 µM | 31.8 | 4200 µM |
| COC(=O)/C=C/c1cccc(O)c1 | 224 µM (≈ 39.9 µg/mL) | > 600 µM | 3.8 | 850 µM |
| CC(C)=CCC/C(C)=C/COc1ccc(/C=C/C(=O)O)cc1 | 66.8 µM (≈ 20.1 µg/mL) | > 600 µM | 3.14 | 210 µM |
| COC(=O)/C=C/c1ccc(OC/C=C(\C)CCC=C(C)C)cc1 | 127 µM (≈ 39.9 µg/mL) | > 600 µM | 1.25 | 159 µM |
| COC(=O)/C=C/c1ccc(OCC=C(C)C)cc1 | 81.2 µM (≈ 20 µg/mL) | > 600 µM | 6 | 487 µM |
| COC(=O)/C=C/c1cccc(OCC=C(C)C)c1 | 244 µM (≈ 60.1 µg/mL) | > 600 µM | 12.2 |  |
| COC(=O)/C=C/c1ccccc1OCC=C(C)C | > 406 µM | > 600 µM | < 6.4 |  |
| CC(C)=CCOc1cccc(/C=C/C(=O)O)c1 | 172 µM (≈ 40 µg/mL) | > 600 µM | 7.53 |  |
| CC(C)=CCOc1ccccc1/C=C/C(=O)O | 258 µM (≈ 59.9 µg/mL) | > 600 µM | 6.52 |  |
| CC(C)=CCOc1ccc(/C=C/C(=O)O)cc1 | 86.1 µM (≈ 20 µg/mL) | > 600 µM | 15.6 | 1340 µM |
| COC(=O)/C=C/c1ccccc1O | 112 µM (≈ 20 µg/mL) | > 600 µM | 10 | 1120 µM |
| O=C(O)/C=C/c1cccc(O)c1 | 366 µM (≈ 60.1 µg/mL) | > 600 µM | 14.5 | 5290 µM |
| CC(=O)Nc1ccc(O)cc1 [ACETAMINOPHEN] | > 661 µM | > 600 µM | < 1.52 | 1000 µM |
| O=C(O)/C=C/c1ccccc1 [CINNAMIC ACID] | 270 µM (≈ 40 µg/mL) | > 600 µM | 24.2 | 6550 µM |
| O=C(O)/C=C/c1ccc(O)cc1 [COUMARIC ACID] | 244 µM (≈ 40.1 µg/mL) | > 600 µM | 18.7 | 4560 µM |
| NNC(=O)c1ccncc1 [ISONIAZID] | 0.73 µM (≈ 0.1 µg/mL) |  | 30000 | 21900 µM |
| CC(=O)Nc1cccc(O)c1 [METACETAMOL] | > 661 µM | > 600 µM | < 8.08 | 5340 µM |
| COC(=O)/C=C/c1ccc(O)cc1 [METHYL P-HYDROXYCINNAMATE] | 224 µM (≈ 39.9 µg/mL) | > 600 µM | 2.72 | 609 µM |
| O=C(O)/C=C/c1ccccc1O [O-COUMARIC ACID] | 122 µM (≈ 20 µg/mL) | > 600 µM | 37.4 | 4560 µM |
| CO[C@H]1/C=C/O[C@@]2(C)Oc3c(C)c(O)c4c(O)c(c(/C=N/N5CCN(C)CC5)c(O)c4c3C2=O)NC(=O)/C(C)=C\C=C\[C@H](C)[C@H](O)[C@@H](C)[C@@H](O)[C@@H](C)[C@H](OC(C)=O)[C@@H]1C [RIFAMPIN] | 0.0607 µM (≈ 0.05 µg/mL) |  | 14000 | 850 µM |
